Legend:
[1] = test system: transgenic Drosophila expressing LRRK2-G2019S in dopamine (DA) neurons; experiment: Drosophila model survival rate; type: in vivo; settings: significance compared to DMSO negative control
From the text: (§1) Drosophila model was used to evaluate Examples in vivo. The GAL4/UAS system developed by Andrea Brand and Norbert Perrimon in 1993 [45] was used to generate transgenic Drosophila expressing LRRK2-G2019S in dopamine (DA) neurons. The system has two parts: the GAL4 gene, encoding the yeast transcription activator protein GAL4, and the UAS (Upstream Activation Sequence), an enhancer to which GAL4 specifically binds to activate gene transcription. This system takes advantage of the yeast GAL4 transcription factor, which binds specifically to the UAS.
To express LRRK2-G2019S in DA neurons, the UAS-Wild Type-LRRK2 and UAS-G2019S-LRRK2 transgenes were combined with the dopa decarboxylase (ddc)-GAL4 driver. The 10 μM GW5074 was used for the positive control. […]
Twenty newly enclosed female Drosophila were collected and placed in a food vial. The Drosophila were moved to fresh food vials every other day at which time deaths were scored.
Based on Drosophila′ survival curve, the 50% survival time parameter indicates the time at which half of the Drosophila remained alive and was used to compare the survival ratio between the different groups. The mean 50% survival times and the standard errors were calculated based on 4 separate experiments for each group. The data were analysed by GraphPad PRISM® 6.0 software.

[2] = test system: transgenic Drosophila expressing LRRK2-G2019S in dopamine (DA) neurons; experiment: Drosophila model climbing assay (negative geotaxis); type: in vivo; settings: significance compared to DMSO negative control
From the text: as §1
To express LRRK2-G2019S in DA neurons, the UAS-Wild Type-LRRK2 and UAS-G2019S-LRRK2 transgenes were combined with the dopa decarboxylase (ddc)-GAL4 driver. The 10 μM GW5074 was used for the positive control. The negative control group was DMSO control (all compounds were dissolved in DMSO with 1:1000 dillution). The Drosophila were maintained at 25° C. on a 12 hour light-12 hour dark cycle. GW5074 was used as positive control.
The negative geotaxis assay was used to analyse the locomotors ability of the Drosophila. Twenty Drosophila from each vial and 4 vials for each group were performed the climbing assay weekly.
The tested Drosophila were transferred into a vertical plastic tube (15 cm tall, 1.5 cm in diameter). After 30 min of rest at room temperature, the Drosophila were gently tapped to the bottom of the tube, the numbers of Drosophila that could climb to or above the test line within 10 seconds were counted and the percent were calculated.
The climbing abilities were analysed based on three separate experiments for each vial and the data were analysed by GraphPad PRISM® 6.0 software.

[3] = molecular target: LRRK2 (phospho S935) in Drosophila brain lysates (Homo sapiens (Human), UniProt Q5S007, G2019S); experiment: Drosophila model kinase assays at week 6; type: in vivo; settings: ratio of phosphate LRRK2 protein to Flag protein, significance compared to DMSO negative control
Chain of LRRK2 (phospho S935) in Drosophila brain lysates (Q5S007 whole entry G2019S): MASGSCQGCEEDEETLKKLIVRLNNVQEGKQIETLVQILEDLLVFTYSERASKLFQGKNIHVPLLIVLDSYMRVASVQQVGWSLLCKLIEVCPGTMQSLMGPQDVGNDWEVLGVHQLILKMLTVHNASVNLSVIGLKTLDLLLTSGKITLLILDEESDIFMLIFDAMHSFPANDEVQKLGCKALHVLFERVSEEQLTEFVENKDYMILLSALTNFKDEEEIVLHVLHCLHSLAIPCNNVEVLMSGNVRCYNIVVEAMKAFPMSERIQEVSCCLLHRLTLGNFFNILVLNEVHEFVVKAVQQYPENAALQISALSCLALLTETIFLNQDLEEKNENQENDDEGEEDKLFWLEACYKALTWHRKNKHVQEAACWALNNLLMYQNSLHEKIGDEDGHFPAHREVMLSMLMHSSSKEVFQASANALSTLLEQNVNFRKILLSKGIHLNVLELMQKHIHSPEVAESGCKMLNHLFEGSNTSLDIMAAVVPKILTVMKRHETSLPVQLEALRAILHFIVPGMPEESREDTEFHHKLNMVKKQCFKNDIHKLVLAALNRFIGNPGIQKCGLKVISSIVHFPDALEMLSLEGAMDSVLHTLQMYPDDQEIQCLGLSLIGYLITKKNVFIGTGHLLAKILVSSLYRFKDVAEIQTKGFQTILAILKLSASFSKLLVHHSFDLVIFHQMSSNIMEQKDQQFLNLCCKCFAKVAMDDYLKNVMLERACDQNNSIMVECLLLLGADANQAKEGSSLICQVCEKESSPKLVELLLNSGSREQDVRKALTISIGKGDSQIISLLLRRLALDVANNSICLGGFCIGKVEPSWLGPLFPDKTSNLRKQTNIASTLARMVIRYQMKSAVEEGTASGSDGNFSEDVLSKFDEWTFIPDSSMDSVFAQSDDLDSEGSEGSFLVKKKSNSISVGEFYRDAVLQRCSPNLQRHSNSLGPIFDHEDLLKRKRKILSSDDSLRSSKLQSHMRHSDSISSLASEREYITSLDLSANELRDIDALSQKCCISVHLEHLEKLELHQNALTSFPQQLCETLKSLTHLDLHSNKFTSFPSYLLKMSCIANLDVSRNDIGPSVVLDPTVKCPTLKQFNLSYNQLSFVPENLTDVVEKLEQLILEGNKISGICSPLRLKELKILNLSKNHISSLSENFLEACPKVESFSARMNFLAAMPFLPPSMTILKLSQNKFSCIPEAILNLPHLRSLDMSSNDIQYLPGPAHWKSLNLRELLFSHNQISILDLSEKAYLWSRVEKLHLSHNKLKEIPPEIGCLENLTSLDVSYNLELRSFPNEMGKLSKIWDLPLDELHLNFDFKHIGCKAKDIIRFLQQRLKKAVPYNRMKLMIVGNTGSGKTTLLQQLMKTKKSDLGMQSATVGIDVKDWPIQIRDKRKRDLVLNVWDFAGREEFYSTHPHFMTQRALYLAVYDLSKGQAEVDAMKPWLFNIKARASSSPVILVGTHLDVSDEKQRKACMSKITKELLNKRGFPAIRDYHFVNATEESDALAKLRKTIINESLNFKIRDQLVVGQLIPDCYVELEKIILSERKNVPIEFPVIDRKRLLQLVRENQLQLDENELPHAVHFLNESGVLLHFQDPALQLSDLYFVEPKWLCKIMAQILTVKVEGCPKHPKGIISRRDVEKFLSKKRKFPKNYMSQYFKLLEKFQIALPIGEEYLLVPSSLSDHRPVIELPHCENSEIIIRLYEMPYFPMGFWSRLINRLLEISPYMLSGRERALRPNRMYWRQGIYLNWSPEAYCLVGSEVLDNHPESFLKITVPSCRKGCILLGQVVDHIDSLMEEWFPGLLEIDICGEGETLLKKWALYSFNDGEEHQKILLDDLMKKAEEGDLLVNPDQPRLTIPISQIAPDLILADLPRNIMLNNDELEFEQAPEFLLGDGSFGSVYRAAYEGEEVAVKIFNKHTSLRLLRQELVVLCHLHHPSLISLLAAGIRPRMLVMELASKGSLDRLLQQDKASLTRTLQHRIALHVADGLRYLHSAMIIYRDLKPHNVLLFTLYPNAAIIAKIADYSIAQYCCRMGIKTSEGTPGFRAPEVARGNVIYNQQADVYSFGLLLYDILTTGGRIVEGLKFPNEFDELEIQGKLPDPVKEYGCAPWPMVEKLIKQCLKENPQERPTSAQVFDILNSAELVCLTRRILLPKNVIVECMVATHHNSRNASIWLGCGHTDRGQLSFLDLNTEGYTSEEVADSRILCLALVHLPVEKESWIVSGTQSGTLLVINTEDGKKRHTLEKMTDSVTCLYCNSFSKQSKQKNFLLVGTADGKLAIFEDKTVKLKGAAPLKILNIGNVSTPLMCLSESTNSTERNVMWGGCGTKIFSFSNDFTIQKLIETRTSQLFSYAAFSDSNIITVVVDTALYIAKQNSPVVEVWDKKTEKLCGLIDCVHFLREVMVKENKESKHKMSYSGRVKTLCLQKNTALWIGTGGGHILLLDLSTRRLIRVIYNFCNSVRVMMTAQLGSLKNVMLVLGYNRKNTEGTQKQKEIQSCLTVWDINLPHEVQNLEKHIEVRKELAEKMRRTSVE
Description: The 10 μM GW5074 was used for the positive control. The negative control group was DMSO control (all compounds were dissolved in DMSO with 1:1000 dillution). The Drosophila were maintained at 25° C. on a 12 hour light-12 hour dark cycle. GW5074 was used as positive control [47].
The adult Drosophila heads were homogenized on ice, and the brain lysates were performed kinase reaction in kinase reaction buffer with ATP and DTT.
Then the lysates were electrophoresed through 12% SDS-PAGE gels and transferred to PVDF membranes (Millipore). The membranes were blocked in TBST with 5% skimmed milk for 1 hour at room temperature and then incubated in anti-LRRK2 pSer935 antibody (Abcam, ab133450) and anti-Flag antibody overnight at 4° C.
The proteins were detected with HRP-conjugated secondary antibodies and ECL detection reagents. The optical density of immunoblotting was analysed by Image J software and the ratio of phosphate LRRK2 protein compare to Flag protein were calculated and the data were analysed by GraphPad PRISM® 6.0 software.

[4] = molecular target: JAK2 (Homo sapiens (Human), UniProt O60674); experiment: LANCE Kinase Assay (JAK2_IC50 selectivity assay); type: biochemical
Chain of JAK2 (O60674 whole entry): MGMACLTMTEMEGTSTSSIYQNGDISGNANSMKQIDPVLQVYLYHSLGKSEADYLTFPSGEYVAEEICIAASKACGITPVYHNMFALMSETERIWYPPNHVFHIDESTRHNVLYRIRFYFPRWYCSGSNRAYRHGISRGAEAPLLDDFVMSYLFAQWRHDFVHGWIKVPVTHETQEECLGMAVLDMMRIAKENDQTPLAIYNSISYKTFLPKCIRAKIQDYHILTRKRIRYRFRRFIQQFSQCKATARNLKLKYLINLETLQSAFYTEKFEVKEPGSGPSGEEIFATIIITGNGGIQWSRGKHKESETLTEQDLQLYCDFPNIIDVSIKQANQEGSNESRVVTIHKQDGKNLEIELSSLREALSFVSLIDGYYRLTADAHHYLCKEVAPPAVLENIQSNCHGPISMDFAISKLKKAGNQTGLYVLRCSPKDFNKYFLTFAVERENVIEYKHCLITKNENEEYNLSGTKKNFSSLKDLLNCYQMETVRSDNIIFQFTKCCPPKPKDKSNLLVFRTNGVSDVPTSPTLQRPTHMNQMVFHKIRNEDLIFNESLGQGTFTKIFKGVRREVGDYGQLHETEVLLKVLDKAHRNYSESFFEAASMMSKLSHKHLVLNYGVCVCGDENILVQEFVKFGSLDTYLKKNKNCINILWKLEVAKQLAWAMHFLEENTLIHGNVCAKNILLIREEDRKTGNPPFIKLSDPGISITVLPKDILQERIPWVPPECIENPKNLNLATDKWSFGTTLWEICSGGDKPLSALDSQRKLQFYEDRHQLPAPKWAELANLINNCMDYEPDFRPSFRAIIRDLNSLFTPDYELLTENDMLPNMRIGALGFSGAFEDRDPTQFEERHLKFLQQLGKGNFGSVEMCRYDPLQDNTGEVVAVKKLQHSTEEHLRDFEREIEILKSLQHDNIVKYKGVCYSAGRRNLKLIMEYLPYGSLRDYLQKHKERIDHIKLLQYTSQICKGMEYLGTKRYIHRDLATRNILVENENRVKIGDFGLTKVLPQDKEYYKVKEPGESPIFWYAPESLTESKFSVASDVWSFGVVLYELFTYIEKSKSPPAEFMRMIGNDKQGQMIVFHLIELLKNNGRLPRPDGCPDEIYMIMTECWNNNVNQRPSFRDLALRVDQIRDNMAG
From the text: In LANCE® Kinase Assay (JAK2_IC50 selectivity assay): JAK2 (Invitrogen, Cat. No PV4288), ATP (Sigma, Cat. No. A7699-1G), DMSO (Sigma, Cat. No. D2650), DTT (Sigma, Cat. No. 43815), LANCE Ultra ULight™-JAK-1 peptide (Perkin Elmer, Cat. No. TRF0121), LANCE Eu-W1024 Anti-phosphotyrosine (PT66) (Perkin Elmer, Cat. No. AD0069), LANCE™ Detection Buffer (Perkin Elmer, Cat. No. CR97-100), Tofacitinib (PharmaBlock Sciences(Nanjing), Inc, Cat. No. PBN2011586-01); Equipments: Envision (Perkin Elmer), Bravo (Agilent); Consumables: 384 well Intermediate plate (Greiner, Cat. No. 781280), 384 well assay plate (Perkin Elmer, Cat. No. 6007299),
The assay involves two steps, the enzymatic step and the detection step with HTRF reagents. Step 1: During the enzymatic step the substrate-biotin is incubated with the kinase of interest. ATP is added to start the reaction. Step 2: The detection reagent catches the phosphorylated substrate and the resulting TR-FRET is proportional to the phosphorylation level.
Compound Preparation: Dissolve the test compounds into 30 mM DMSO solution and put them in nitrogen hood at room temperature for long term storage; Dilute the 30 mM compound in DMSO with 3-fold factor, total 11 concentrations; Aspirate 1 μl compound and then dilute them in 25 folds with kinase buffer. Mix well and balance 30 minutes at room temperature.
Kinase Reaction: Transfer 2.5 μl compounds in kinase buffer (4×) into assay plate by Agilent Bravo. Spin the plate; Transfer 5 μl enzyme mixture into the assay plate by using Eppendorf electronic multi-channel pipette. Spin the plate; Incubate the assay plate for 20 minutes at room temperature (23° C.); Add 2.5 μl kinase buffer with ATP into the assay plate by using Multidrop. Spin and seal the plate; Incubate the assay plate for 90 minutes at room temperature (23° C.).
Stop Reaction: Transfer 10 μl detection reagent (2 nM LANCE Eu-W1024 Anti-phosphotyrosine) into the assay plate by using Eppendorf electronic multi-channel pipette. Spin and seal the plate; Incubate the assay plate at room temperature (23° C.) for 60 minutes.
Detection and Read: The excitation wavelength is 340 nm, the primary emission wavelength is 615 nm and the secondary emission wavelength is 665 nm (for Cryptate and Ulight, respectively). Read the plate with EnVision to get the readout of both wavelengths; Calculate the ratio of 665 nm/615 nm.
(§2) IC50 estimates were obtained using the software XLfit (IDBS Inc.).

[5] = molecular target: LRRK2 G2019S (Homo sapiens (Human), UniProt Q5S007, G2019S); experiment: Adapta Kinase Assay (LRRK2_IC50 assay); type: biochemical; settings: inhibition of LRRK2 G2019S
Description: In Adapta™ Kinase Assay (LRRK2_IC50 assay): the Kinase Reaction Buffer contained 5× Kinase Buffer S (Life Technologies, PV5213) and 2 mM DTT (Life Technologies, P2325).
The Adapta® universal kinase assay is a homogenous, fluorescent based immunoassay for the detection of ADP. In contrast to ATP depletion assays, the Adapta® assay is extremely sensitive to ADP formation such that a majority of the signal change occurs in the first 10-20% conversion of ATP to ADP. This makes the Adapta® universal kinase assay ideally suited for use with low activity kinases.
Prepare a 1× solution of kinase reaction buffer from the 5× Kinase Buffer S stock (listed above) by adding 2 ml of 5× stock to 8 ml of H2O to make 10 ml of 1× kinase reaction buffer. To this, add 20 μl of 1 M DTT.
Kinase reactions are performed in a 10 μl volume in low-volume 384-well plates. […] Other non—treated assay plates, while not tested, may also be suitable. The concentration of substrate in the assay is 100 μM, and the 1× kinase reaction buffer consists of 50 mM Tris-HCl pH8.5, 10 mM MgCl2, 1 mM EGTA, 0.01% Brij-35, and 2 mM DTT, plus any additional additives that may be required for a specific kinase. […] The plate is allowed to equilibrate at room temperature for at least 30 minutes before being read on a plate reader configured for Adapta™ TR-FRET.
The data presented in this document were generated using a BMG LABTECH PHERAstar plate reader using the appropriate filters and instrument settings for Adapta™. The Test Compounds are screened in 1% DMSO (final) in the well. For 8 point titrations, 5-fold serial dilutions are conducted from the starting concentration.
as §2

| Structure (SMILES) | Survival Rate [1] | Climbing Assay 3 weeks ([2]; 3 weeks) | Climbing Assay 4 weeks ([2]; 4 weeks) | Climbing Assay 5 weeks ([2]; 5 weeks) | Climbing Assay 6 weeks ([2]; 6 weeks) | Kinase Assays [3] | IC50 [4] | IC50 [5] |
| --- | --- | --- | --- | --- | --- | --- | --- | --- |
| c1ccc2c(c1)CN(C1CCOCC1)c1nccc3[nH]nc-2c13 [Example 58] | ** (P < 0.01, compared to DMSO negative control) | * (P < 0.05, compared to DMSO negative control) | * (P < 0.05, compared to DMSO negative control) | ** (P < 0.01, compared to DMSO negative control) | ** (P < 0.01, compared to DMSO negative control) | * (P < 0.05, compared to DMSO negative control) | – | – |
| CN1CCN(C2CCOCC2)c2nccc3[nH]nc1c23 [Example 93, 9-methyl-6-(tetrahydro-2H-pyran-4-yl)-6,7,8,9-tetrahydro-2H-1,2,5,6,9-pentaazabenzo[cd]azulene] | – | – | – | – | – | – | > 30000 nM | 170 nM |
